Test results reported in US20050095299A1, “Controlled release analgesic suspensions” (priority 2003, published 2005).

Experiment: Therapeutic duration of action of an immediate release dose (from dosing instructions in labeling)
Format: in vivo
Text: As used herein, “ATDAIRD” shall mean the average therapeutic duration of action of an effective immediate release dose” of a particular active ingredient. […] The therapeutic duration of action of a particular active ingredient can readily be determined from the dosing instructions in the labeling for immediate release products containing that particular active ingredient.

Row | SMILES | ATDAIRD (average therapeutic duration of action of an effective immediate release dose) [h]
1 | COc1ccc2cc([C@H](C)C(=O)O)ccc2c1 [naproxen] | 10
2 | CC(C)Cc1ccc(C(C)C(=O)O)cc1 (stereo not drawn) [ibuprofen, 2-(4-isobutylphenyl)-propionic acid] | 5
3 | CC(C(=O)O)c1cccc(C(=O)c2ccccc2)c1 (stereo not drawn) [ketoprofen] | 5
